Laboratory results from patent US11279733B2, “Peptide antibiotics” (priority 2017, dated 2022).
Converted amounts (≈) assume the structure as drawn. Positions of bridges follow the written chain, without caps; N, C: chain ends. Non-standard residues stand in square brackets, D forms with d. Residues, ends and D or L forms follow the SMILES beside them. *: point of attachment. Decanoyl(3R-OH) = CCCCCCC[C@@H](O)CC(=O)*; dBip = N[C@H](Cc1ccc(-c2ccccc2)cc1)C(=O)O; dIgl = N[C@@H](C(=O)O)C1Cc2ccccc2C1; Igl = N[C@H](C(=O)O)C1Cc2ccccc2C1; dChg = N[C@@H](C(=O)O)C1CCCCC1; Tle = CC(C)(C)[C@H](N)C(=O)O; dDab = NCC[C@@H](N)C(=O)O; Octanoyl = CCCCCCCC(=O)*; dDap = NC[C@@H](N)C(=O)O; Dab = NCC[C@H](N)C(=O)O

Key:
in vitro = conditions: for CC50 at 24 h: human
In short: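 Viability is measured by resazurin reduction (5 μM, 2 h, 37 °C) after cells seeded at 4000 per well are treated with compound for 24 h.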

[1] = tested on: K. pneumoniae GN_102 PmxR; conditions: GN 102 PmxR
In short: (§1)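 Mid-log cultures grown in Mueller Hinton broth at 37° C were tested by 2-fold broth microdilution at 5×10^5 CFU/mL final. Compounds were dissolved in water and tested over a final range of 32 to 0.015 μg/mL.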

E. coli ATCC 25922 = conditions: ATCC 25922
In short: as §1

A. baumannii ATCC 19606 = conditions: ATCC 19606
In short: as §1

[2] = tested on: K. pneumoniae GN_106, PmxR; conditions: GN 106, PmxR
In short: as §1

[3] = tested on: K. pneumoniae ATCC 700603, MDR; conditions: ATCC 700603
In short: as §1

K. pneumoniae ATCC 13883 = conditions: ATCC 13883
In short: as §1

[4] = tested on: P. aeruginosa GN_105, PmxR; conditions: GN 105, PmxR
In short: as §1

[5] = tested on: S. aureus ATCC 25923, MSSA; conditions: ATCC 25923
In short: as §1

P. aeruginosa ATCC 27853 = conditions: ATCC 27853
In short: as §1

[6] = tested on: K. pneumoniae ATCC BAA-2146, NDM-1 pos; conditions: ATCC BAA-2146
In short: as §1

A. baumannii GN_093 PmxR = conditions: GN 093 PmxR
In short: as §1

[7] = tested on: P. aeruginosa GN_043, PmxR; conditions: polymyxin-resistant
In short: as §1

SMILES | CC50 (in vitro) [µM] | MIC K. pneumoniae GN_102 PmxR [1] [µg/mL] | MIC E. coli ATCC 25922 (E. coli ATCC 25922) [µg/mL] | MIC A. baumannii ATCC 19606 (A. baumannii ATCC 19606) [µg/mL] | MIC K. pneumoniae GN_106, PmxR [2] [µg/mL] | MIC K. pneumoniae ATCC 700603, MDR [3] [µg/mL] | MIC K. pneumoniae ATCC 13883 (K. pneumoniae ATCC 13883) [µg/mL] | MIC P. aeruginosa GN_105, PmxR [4] [µg/mL] | MIC S. aureus ATCC 25923, MSSA [5] [µg/mL] | MIC P. aeruginosa ATCC 27853 (P. aeruginosa ATCC 27853) [µg/mL] | MIC K. pneumoniae ATCC BAA-2146, NDM-1 pos [6] [µg/mL] | MIC A. baumannii GN_093 PmxR (A. baumannii GN_093 PmxR) [µg/mL] | MIC P. aeruginosa GN_043, PmxR [7] [µg/mL] | CC50 at 24 h (in vitro) [µM]
CCCCCCC[C@@H](O)CC(=O)N[C@H](CN)C(=O)N[C@H]1CCNC(=O)[C@H](Cc2c[nH]c3ccccc23)NC(=O)[C@H](CCCNC(=N)N)NC(=O)[C@H](CCCCN)NC(=O)[C@H](C2Cc3ccccc3C2)NC(=O)[C@@H](Cc2ccccc2)NC(=O)[C@H](CCN)NC1=O [compound 8888, 3(R)OH-nC9CO-D-Dap-cyc[L-Dab-L-Dab-D-Phe-L-indanylgly-L-Lys-L-Arg-L-Trp]] ({Decanoyl(3R-OH)}-[dDap][Dab][Dab][dF][Igl]KRW; lactam 2-C) | 67 | 4 (≈ 3.21 µM) | 2 (≈ 1.6 µM) | 4 (≈ 3.21 µM) | 4 (≈ 3.21 µM) | 2 (≈ 1.6 µM) | 4 (≈ 3.21 µM) | 2 (≈ 1.6 µM) | 2 (≈ 1.6 µM) | 4 (≈ 3.21 µM) | 2 (≈ 1.6 µM) | 8 (≈ 6.41 µM) | 4 (≈ 3.21 µM) | –
CCCCCCC[C@@H](O)CC(=O)N[C@H](CN)C(=O)N[C@H]1CCNC(=O)[C@H](Cc2c[nH]c3ccccc23)NC(=O)[C@H](CCCCN)NC(=O)[C@H](CCCNC(=N)N)NC(=O)[C@H](C2Cc3ccccc3C2)NC(=O)[C@@H](Cc2ccccc2)NC(=O)[C@H](CCN)NC1=O [compound 8890, 3(R)OH-nC9CO-D-Dap-cyc[L-Dab-L-Dab-D-Phe-L-indanylgly-L-Arg-L-Lys-L-Trp]] ({Decanoyl(3R-OH)}-[dDap][Dab][Dab][dF][Igl]RKW; lactam 2-C) | – | 4 (≈ 3.21 µM) | 2 (≈ 1.6 µM) | 8 (≈ 6.41 µM) | 4 (≈ 3.21 µM) | 2 (≈ 1.6 µM) | 2 (≈ 1.6 µM) | 2 (≈ 1.6 µM) | 2 (≈ 1.6 µM) | 4 (≈ 3.21 µM) | 4 (≈ 3.21 µM) | 8 (≈ 6.41 µM) | 4 (≈ 3.21 µM) | 67
CCCCCCC[C@@H](O)CC(=O)N[C@H](CN)C(=O)N[C@H]1CCNC(=O)[C@H](Cc2c[nH]c3ccccc23)NC(=O)[C@H](CCCNC(=N)N)NC(=O)[C@H](CCCCN)NC(=O)[C@H](C(C)(C)C)NC(=O)[C@@H](Cc2ccc(-c3ccccc3)cc2)NC(=O)[C@H](CCN)NC1=O [compound 8892, 3(R)OH-nC9CO-D-Dap-cyc[L-Dab-L-Dab-D-Bip-L-tert-Leu-L-Lys-L-Arg-L-Trp]] ({Decanoyl(3R-OH)}-[dDap][Dab][Dab][dBip][Tle]KRW; lactam 2-C) | – | 8 (≈ 6.33 µM) | 4 (≈ 3.17 µM) | 8 (≈ 6.33 µM) | 8 (≈ 6.33 µM) | 4 (≈ 3.17 µM) | 8 (≈ 6.33 µM) | 4 (≈ 3.17 µM) | 4 (≈ 3.17 µM) | 8 (≈ 6.33 µM) | 4 (≈ 3.17 µM) | 8 (≈ 6.33 µM) | 4 (≈ 3.17 µM) | > 300
CCCCCCC[C@@H](O)CC(=O)N[C@H](CN)C(=O)N[C@H]1CCNC(=O)[C@H](Cc2c[nH]c3ccccc23)NC(=O)[C@H](CCCNC(=N)N)NC(=O)[C@H](CCCCN)NC(=O)[C@H](CC(C)C)NC(=O)[C@@H](C2Cc3ccccc3C2)NC(=O)[C@H](CCN)NC1=O [compound 8896, 3(R)OH-nC9CO-D-Dap-cyc[L-Dab-L-Dab-D-indanylgly-L-Leu-L-Lys-L-Arg-L-Trp]] ({Decanoyl(3R-OH)}-[dDap][Dab][Dab][dIgl]LKRW; lactam 2-C) | – | 16 (≈ 13.2 µM) | 2 (≈ 1.65 µM) | 8 (≈ 6.59 µM) | 4 (≈ 3.3 µM) | 2 (≈ 1.65 µM) | 8 (≈ 6.59 µM) | 2 (≈ 1.65 µM) | 2 (≈ 1.65 µM) | 4 (≈ 3.3 µM) | 2 (≈ 1.65 µM) | 16 (≈ 13.2 µM) | 4 (≈ 3.3 µM) | 102
CCCCCCC[C@@H](O)CC(=O)N[C@H](CN)C(=O)N[C@H]1CCNC(=O)[C@H](Cc2c[nH]c3ccccc23)NC(=O)[C@H](CCN)NC(=O)[C@H](CCN)NC(=O)[C@H](C2Cc3ccccc3C2)NC(=O)[C@@H](C2Cc3ccccc3C2)NC(=O)[C@H](CCN)NC1=O [compound 8897, 3(R)OH-nC9CO-D-Dap-cyc[L-Dab-L-Dab-D-indanylgly-L-indanylgly-L-Dab-L-Dab-L-Trp]] ({Decanoyl(3R-OH)}-[dDap][Dab][Dab][dIgl][Igl][Dab][Dab]W; lactam 2-C) | – | 4 (≈ 3.36 µM) | 2 (≈ 1.68 µM) | 4 (≈ 3.36 µM) | 4 (≈ 3.36 µM) | 4 (≈ 3.36 µM) | 4 (≈ 3.36 µM) | 2 (≈ 1.68 µM) | 2 (≈ 1.68 µM) | 4 (≈ 3.36 µM) | 4 (≈ 3.36 µM) | 4 (≈ 3.36 µM) | 2 (≈ 1.68 µM) | 27
CCCCCCCC(=O)N[C@H](CCN)C(=O)N[C@H]1CCNC(=O)[C@H](Cc2c[nH]c3ccccc23)NC(=O)[C@H](CCN)NC(=O)[C@H](CCN)NC(=O)[C@H](C2Cc3ccccc3C2)NC(=O)[C@@H](Cc2ccccc2)NC(=O)[C@H](CCN)NC1=O [compound 8898, nC7CO-D-Dab-cyc[L-Dab-L-Dab-D-Phe-L-indanylgly-L-Dab-L-Dab-L-Trp]] (Octanoyl-[dDab][Dab][Dab][dF][Igl][Dab][Dab]W; lactam 2-C) | – | 4 (≈ 3.53 µM) | 4 (≈ 3.53 µM) | 16 (≈ 14.1 µM) | 8 (≈ 7.06 µM) | 4 (≈ 3.53 µM) | 8 (≈ 7.06 µM) | 4 (≈ 3.53 µM) | 4 (≈ 3.53 µM) | 4 (≈ 3.53 µM) | 4 (≈ 3.53 µM) | 16 (≈ 14.1 µM) | 4 (≈ 3.53 µM) | 90
CCCCCCC[C@@H](O)CC(=O)N[C@H](CCN)C(=O)N[C@H]1CCNC(=O)[C@H](Cc2c[nH]c3ccccc23)NC(=O)[C@H](CCN)NC(=O)[C@H](CCN)NC(=O)[C@H](CC(C)C)NC(=O)[C@@H](C2CCCCC2)NC(=O)[C@H](CCN)NC1=O [compound 8899, 3(R)OH-nC9CO-D-Dab-cyc[L-Dab-L-Dab-D-Chg-L-Leu-L-Dab-L-Dab-L-Trp]] ({Decanoyl(3R-OH)}-[dDab][Dab][Dab][dChg]L[Dab][Dab]W; lactam 2-C) | – | 8 (≈ 7.21 µM) | 4 (≈ 3.61 µM) | 16 (≈ 14.4 µM) | 16 (≈ 14.4 µM) | 4 (≈ 3.61 µM) | 8 (≈ 7.21 µM) | 2 (≈ 1.8 µM) | 8 (≈ 7.21 µM) | 4 (≈ 3.61 µM) | 4 (≈ 3.61 µM) | 16 (≈ 14.4 µM) | 4 (≈ 3.61 µM) | 64
CCCCCCCC(=O)N[C@H](CCN)C(=O)N[C@H]1CCNC(=O)[C@H](Cc2c[nH]c3ccccc23)NC(=O)[C@H](CCN)NC(=O)[C@H](CCN)NC(=O)[C@H](CC(C)C)NC(=O)[C@@H](C2Cc3ccccc3C2)NC(=O)[C@H](CCN)NC1=O [compound 8900, nC7CO-D-Dab-cyc[L-Dab-L-Dab-D-indanylgly-L-Leu-L-Dab-L-Dab-L-Trp]] (Octanoyl-[dDab][Dab][Dab][dIgl]L[Dab][Dab]W; lactam 2-C) | – | 16 (≈ 14.6 µM) | 4 (≈ 3.64 µM) | 32 (≈ 29.1 µM) | 16 (≈ 14.6 µM) | 8 (≈ 7.28 µM) | 16 (≈ 14.6 µM) | 8 (≈ 7.28 µM) | 8 (≈ 7.28 µM) | 4 (≈ 3.64 µM) | 8 (≈ 7.28 µM) | >32 | 4 (≈ 3.64 µM) | 115
